Measurements published in patent US20240269139A1, “COMPOUNDS FOR TARGETED PROTEIN DEGRADATION OF KINASES” (DANA-FARBER CANCER INSTITUTE, INC., priority 2020, published 2024).
Like-named read-outs stand apart in the source and are kept apart here.

Experiments:
Format in all cases: cell-based
[1] = molecular target: protein kinases (human kinome) (Homo sapiens, UniProt Q05397)
[2] = molecular target: protein kinases (human kinome) (Homo sapiens, UniProt Q9NYL2)
[3] = molecular target: T1, protein kinases (human kinome) (Homo sapiens, UniProt P11387); details: TOP1 P11387
T1 sequence (P11387 1-765): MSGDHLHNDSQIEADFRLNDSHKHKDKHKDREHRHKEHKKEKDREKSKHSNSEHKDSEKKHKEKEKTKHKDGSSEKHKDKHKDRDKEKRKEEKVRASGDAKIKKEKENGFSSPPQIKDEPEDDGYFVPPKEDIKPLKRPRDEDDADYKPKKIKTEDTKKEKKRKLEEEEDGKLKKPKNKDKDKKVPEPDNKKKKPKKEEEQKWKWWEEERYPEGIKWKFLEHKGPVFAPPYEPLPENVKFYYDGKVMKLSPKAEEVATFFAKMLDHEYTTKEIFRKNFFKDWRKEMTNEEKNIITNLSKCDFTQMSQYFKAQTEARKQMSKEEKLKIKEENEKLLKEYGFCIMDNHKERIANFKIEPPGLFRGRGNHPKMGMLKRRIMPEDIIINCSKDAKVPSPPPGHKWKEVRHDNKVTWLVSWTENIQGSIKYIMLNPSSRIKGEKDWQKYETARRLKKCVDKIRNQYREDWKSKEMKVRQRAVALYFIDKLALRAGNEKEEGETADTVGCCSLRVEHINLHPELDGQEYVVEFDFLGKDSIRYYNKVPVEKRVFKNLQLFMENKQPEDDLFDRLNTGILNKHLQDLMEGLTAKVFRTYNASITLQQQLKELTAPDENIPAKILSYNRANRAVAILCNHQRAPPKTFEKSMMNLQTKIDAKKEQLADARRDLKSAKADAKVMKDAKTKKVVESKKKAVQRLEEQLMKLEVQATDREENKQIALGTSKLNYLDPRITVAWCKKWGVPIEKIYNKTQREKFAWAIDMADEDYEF

[4] = molecular target: T2, protein kinases (human kinome) (Homo sapiens, UniProt Q9UIG0); details: BAZ1B (Q9UIG0)
T2 sequence (Q9UIG0 1-1483): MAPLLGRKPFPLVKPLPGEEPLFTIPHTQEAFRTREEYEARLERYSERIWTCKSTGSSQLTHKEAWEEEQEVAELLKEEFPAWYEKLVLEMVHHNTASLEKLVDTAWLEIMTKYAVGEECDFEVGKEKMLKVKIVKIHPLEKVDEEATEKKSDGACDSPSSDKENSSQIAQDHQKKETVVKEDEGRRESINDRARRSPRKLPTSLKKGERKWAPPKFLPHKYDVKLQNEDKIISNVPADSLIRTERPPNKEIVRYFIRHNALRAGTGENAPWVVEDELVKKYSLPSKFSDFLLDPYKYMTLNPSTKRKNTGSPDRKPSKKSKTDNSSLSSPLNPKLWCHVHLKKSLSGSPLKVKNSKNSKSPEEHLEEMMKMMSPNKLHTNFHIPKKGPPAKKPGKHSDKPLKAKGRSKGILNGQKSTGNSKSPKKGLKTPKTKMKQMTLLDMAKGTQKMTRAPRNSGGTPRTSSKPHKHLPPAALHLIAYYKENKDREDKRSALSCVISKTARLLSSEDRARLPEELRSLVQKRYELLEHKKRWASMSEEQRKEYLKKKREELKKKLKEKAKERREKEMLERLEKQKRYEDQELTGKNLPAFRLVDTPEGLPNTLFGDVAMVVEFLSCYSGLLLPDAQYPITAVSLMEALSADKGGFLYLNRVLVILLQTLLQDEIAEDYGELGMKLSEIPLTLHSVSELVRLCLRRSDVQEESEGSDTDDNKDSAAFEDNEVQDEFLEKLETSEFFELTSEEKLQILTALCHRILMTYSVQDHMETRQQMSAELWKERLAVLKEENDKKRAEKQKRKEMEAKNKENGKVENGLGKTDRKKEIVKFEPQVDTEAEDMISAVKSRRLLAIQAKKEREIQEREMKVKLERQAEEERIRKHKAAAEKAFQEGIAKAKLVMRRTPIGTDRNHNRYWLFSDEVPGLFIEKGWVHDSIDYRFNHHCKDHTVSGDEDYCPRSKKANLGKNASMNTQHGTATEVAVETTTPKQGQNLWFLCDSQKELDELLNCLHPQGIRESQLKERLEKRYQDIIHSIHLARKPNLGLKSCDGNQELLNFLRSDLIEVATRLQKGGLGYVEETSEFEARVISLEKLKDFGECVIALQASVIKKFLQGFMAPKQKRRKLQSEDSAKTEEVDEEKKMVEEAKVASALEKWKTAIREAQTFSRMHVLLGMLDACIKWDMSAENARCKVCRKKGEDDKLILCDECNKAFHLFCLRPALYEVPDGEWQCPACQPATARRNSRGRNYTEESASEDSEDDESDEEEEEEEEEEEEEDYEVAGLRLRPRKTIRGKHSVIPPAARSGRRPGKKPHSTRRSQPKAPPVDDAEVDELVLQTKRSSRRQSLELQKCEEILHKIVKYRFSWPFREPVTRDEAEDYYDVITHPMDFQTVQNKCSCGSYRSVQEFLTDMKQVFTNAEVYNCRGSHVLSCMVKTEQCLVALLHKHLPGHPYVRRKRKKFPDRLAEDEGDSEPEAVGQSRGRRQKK

[5] = Accession Q05397, experiment wp105, direction down
[6] = MAP3K20 Q9NYL2; experiment wp168

Sequence of protein kinases (human kinome) (Homo sapiens, UniProt Q9NYL2) (Q9NYL2 whole entry): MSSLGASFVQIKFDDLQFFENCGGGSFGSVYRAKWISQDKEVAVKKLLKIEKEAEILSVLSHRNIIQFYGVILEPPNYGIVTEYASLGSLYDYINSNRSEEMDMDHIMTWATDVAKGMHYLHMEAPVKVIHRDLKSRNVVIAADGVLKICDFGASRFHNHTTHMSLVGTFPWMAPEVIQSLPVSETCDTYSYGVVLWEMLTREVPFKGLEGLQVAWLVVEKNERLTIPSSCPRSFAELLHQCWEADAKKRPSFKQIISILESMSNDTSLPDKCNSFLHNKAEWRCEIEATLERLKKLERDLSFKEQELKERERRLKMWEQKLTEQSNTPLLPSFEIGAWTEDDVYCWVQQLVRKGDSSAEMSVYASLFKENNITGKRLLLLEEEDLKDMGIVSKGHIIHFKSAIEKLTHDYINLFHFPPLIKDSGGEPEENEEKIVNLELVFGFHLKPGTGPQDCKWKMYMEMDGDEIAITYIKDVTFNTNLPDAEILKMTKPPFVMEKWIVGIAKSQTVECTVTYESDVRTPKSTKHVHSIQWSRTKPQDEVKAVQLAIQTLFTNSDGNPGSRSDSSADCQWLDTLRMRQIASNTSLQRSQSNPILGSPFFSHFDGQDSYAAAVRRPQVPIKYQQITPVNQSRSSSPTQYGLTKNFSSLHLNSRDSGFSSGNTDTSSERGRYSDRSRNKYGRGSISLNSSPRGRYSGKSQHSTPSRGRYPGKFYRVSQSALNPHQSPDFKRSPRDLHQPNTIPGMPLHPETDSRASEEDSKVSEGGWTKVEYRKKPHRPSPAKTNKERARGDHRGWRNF
Sequence of protein kinases (human kinome) (Homo sapiens, UniProt Q05397) (Q05397 whole entry): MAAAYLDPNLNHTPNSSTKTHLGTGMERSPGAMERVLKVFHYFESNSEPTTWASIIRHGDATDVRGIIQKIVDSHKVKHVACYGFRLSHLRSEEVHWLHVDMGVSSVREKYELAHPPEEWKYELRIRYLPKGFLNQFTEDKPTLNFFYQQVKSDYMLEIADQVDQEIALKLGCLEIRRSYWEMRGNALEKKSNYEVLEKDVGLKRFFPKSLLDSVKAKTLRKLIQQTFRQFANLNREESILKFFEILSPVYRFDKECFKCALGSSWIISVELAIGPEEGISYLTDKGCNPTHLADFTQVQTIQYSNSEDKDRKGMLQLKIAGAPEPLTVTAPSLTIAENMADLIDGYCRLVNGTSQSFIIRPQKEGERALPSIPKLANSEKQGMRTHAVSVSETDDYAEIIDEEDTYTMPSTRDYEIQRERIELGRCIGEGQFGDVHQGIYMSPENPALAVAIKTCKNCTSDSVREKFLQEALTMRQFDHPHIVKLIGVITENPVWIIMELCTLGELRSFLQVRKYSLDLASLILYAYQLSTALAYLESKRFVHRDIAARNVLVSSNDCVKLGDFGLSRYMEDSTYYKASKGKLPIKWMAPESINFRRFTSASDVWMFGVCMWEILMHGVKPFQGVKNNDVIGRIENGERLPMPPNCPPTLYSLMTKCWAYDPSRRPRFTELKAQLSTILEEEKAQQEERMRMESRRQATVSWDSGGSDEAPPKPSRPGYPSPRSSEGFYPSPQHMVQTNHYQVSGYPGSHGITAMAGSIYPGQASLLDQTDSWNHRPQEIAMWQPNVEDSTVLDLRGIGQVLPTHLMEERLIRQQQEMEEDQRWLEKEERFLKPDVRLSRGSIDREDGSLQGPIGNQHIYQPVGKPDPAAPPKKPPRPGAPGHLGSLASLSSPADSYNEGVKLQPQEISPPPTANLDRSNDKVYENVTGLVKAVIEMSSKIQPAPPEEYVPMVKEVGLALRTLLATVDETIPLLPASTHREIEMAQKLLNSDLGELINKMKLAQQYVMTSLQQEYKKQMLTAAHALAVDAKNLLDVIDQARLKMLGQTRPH

SMILES: Cc1ccc(NC(=O)c2cccc(C(F)(F)F)c2)cc1N1Cc2cnc(Nc3ccc(N4CCN(Cc5cn(CCCCCOc6cccc7c6C(=O)N(C6CCC(=O)NC6=O)C7=O)nn5)CC4)nc3)nc2N(C)C1=O (centres unmarked) [DB0646, N-(3-(7-((6-(4-((1-(5-((2-(2,6-Dioxopiperidin-3-yl)-1,3-dioxoisoindolin-4-yl)oxy)pentyl)-1H-1,2,3-triazol-4-yl)methyl)piperazin-1-v)pyridin-3-yl)amino)-1-methyl-2-oxo-1,4-dihydropyrimido[4,5-d]pyrimidin-3(2H)-yl)-4-methylphenyl)-3-(trifluoromethyl)benzamide]
- logFC PTK2 [1, 5]: −0.5575
- logFC PTK2 ([1]; PTK2 Q05397, experiment wp105): −0.5575
- logFC ([1]; PTK2 Q05397, experiment wp114): −0.5538
- logFC PTK2 ([1]; PTK2 Q05397, experiment wp114): −0.5538
- logFC ([1]; PTK2 Q05397, experiment wp172): −0.8047
- logFC PTK2 ([1]; PTK2 Q05397, experiment wp172): −0.8047
- logFC MAP3K20 (Q9NYL2) ([2]; Experiment wp045): −0.4248
- logFC MAP3K20 (Q9NYL2) ([2]; Experiment wp107): −0.53
- logFC MAP3K20 (Q9NYL2) ([2]; Experiment wp160, 2 hr): −0.3293
- logFC MAP3K20 ([2]; MAP3K20 Q9NYL2; experiment wp045): −0.4248
- logFC MAP3K20 ([2]; MAP3K20 Q9NYL2; experiment wp107): −0.53
- logFC MAP3K20 ([2]; MAP3K20 Q9NYL2; experiment wp152): −0.6556
- logFC MAP3K20 ([2]; MAP3K20 Q9NYL2; experiment wp160, 2 hr): −0.3293
- logFC MAP3K20 ([2]; MAP3K20 Q9NYL2; experiment wp160, 4 hr): −0.6192
- logFC MAP3K20 ([2]; MAP3K20 Q9NYL2; experiment wp160, 8 hr): −0.9197
- logFC MAP3K20 ([2]; MAP3K20 Q9NYL2; experiment wp160; 4 hr): −0.6192
- logFC MAP3K20 ([2]; MAP3K20 Q9NYL2; experiment wp160; 8 hr): −0.9197
- logFC MAP3K20 ([2]; MAP3K20 Q9NYL2; experiment wp172): −0.3864
- logFC MAP3K20 (Q9NYL2) ([2]; experiment wp152): −0.6556

SMILES: C=CCn1c(=O)c2cnc(Nc3ccc(N4CCN(CCCNc5cccc6c5C(=O)N(C5CCC(=O)NC5=O)C6=O)CC4)cc3)nc2n1-c1cccc(C(C)(C)O)n1 (centres unmarked) [ZNL.02.096]
- logFC ([3]; experiment wp056): −0.3756

SMILES: CN(C)C(=O)c1cc2cnc(Nc3ccc(N4CCN(CCCCNC(=O)COc5cccc6c5C(=O)N(C5CCC(=O)NC5=O)C6=O)CC4)cn3)nc2n1C1CCCC1 (centres unmarked) [BSJ.04.132]
- logFC ([4]; experiment wp084): −0.3222

SMILES: Cc1ncsc1-c1ccc([C@H](C)NC(=O)[C@@H]2C[C@@H](O)CN2C(=O)[C@@H](NC(=O)CCCCCN2CCN(c3ccc(Nc4ncc5scc(-c6cccc(NS(C)(=O)=O)c6)c5n4)cc3)CC2)C(C)(C)C)cc1 [RSS0680, (2S,4R)-1-((S)-3,3-Dimethyl-2-(6-(4-(4-((7-(3-(methylsulfonamido)phenyl)thieno[3,2-d]pyrimidin-2-yl)amino)phenyl)piperazin-1-yl)hexanamido)butanoyl)-4-hydroxy-N—((S)-1-(4-(4-methylthiazol-5yl)phenyl)ethyl)pyrrolidine-2-carboxamide]
- logFC ([3]; experiment wp080): −0.4687
- logFC ([4]; experiment wp080): −0.4061

SMILES: Cc1ncsc1-c1ccc([C@H](C)NC(=O)[C@@H]2C[C@@H](O)CN2C(=O)[C@@H](NC(=O)CCOCCOCCN2CCN(c3ccc(Nc4ncc(Cl)c(Nc5ccccc5S(=O)(=O)C(C)C)n4)cc3)CC2)C(C)(C)C)cc1 [FMF.06.098.1]
- logFC ([1]; PTK2 Q05397, experiment wp114): −0.9477
- logFC PTK2 ([1]; PTK2 Q05397, experiment wp114): −0.9477

SMILES: CC(=O)c1c(C)c2cnc(Nc3ccc(N4CCN(CCOCCOCCOCCNC(=O)COc5cccc6c5C(=O)N(C5CCC(=O)NC5=O)C6=O)CC4)cn3)nc2n(C2CCCC2)c1=O (centres unmarked) [BSJ.03.123]
- logFC ([3]; experiment wp084): −0.3381
- logFC ([4]; experiment wp084): −0.3532

SMILES: Cc1cc(Nc2ncc(Br)c(Nc3cccc(F)c3C(N)=O)n2)ccc1S(=O)(=O)NCCOCCOCCOCCOCCNc1cccc2c1C(=O)N(C1CCC(=O)NC1=O)C2=O (centres unmarked) [TMX.02.174]
- logFC ([1]; PTK2 Q05397, experiment wp146): −0.8198
- logFC PTK2 ([1]; PTK2 Q05397, experiment wp146): −0.8198

SMILES: CC(C)(C)c1nc(-c2cccc(NS(=O)(=O)c3c(F)cccc3F)c2F)c(-c2ccnc(NCCOCCNC(=O)CCOCCOCCNc3cccc4c3C(=O)N(C3CCC(=O)NC3=O)C4=O)n2)s1 (centres unmarked) [DD.03.106]
- logFC ([3]; experiment wp147, 4 uM): −0.4525
- logFC MAP3K20 (Q9NYL2) ([2]; Experiment wp147, 2 uM): −0.4079
- logFC MAP3K20 ([2]; MAP3K20 Q9NYL2; experiment wp147, 2 uM): −0.4079

SMILES: Cc1ccc(NC(=O)c2cccc(C(F)(F)F)c2)cc1N1Cc2cnc(Nc3ccc(N4CCN(CCCCC(=O)N[C@H](C(=O)N5C[C@H](O)C[C@H]5C(=O)N[C@@H](C)c5ccc(-c6scnc6C)cc5)C(C)(C)C)CC4)nc3)nc2N(C)C1=O [DB1113]
- logFC MAP3K20 [2, 6]: −1.38

SMILES: CC(C)S(=O)(=O)c1ccccc1Nc1nc(Nc2ccc(N3CCN(CCOCCNC(=O)CNc4cccc5c4C(=O)N(C4CCC(=O)NC4=O)C5=O)CC3)cc2)ncc1Cl (centres unmarked) [SK.3.91]
- logFC PTK2 [1, 5]: −2.958
- logFC PTK2 ([1]; PTK2 Q05397, experiment wp105): −2.958
- logFC ([1]; PTK2 Q05397, experiment wp114): −1.684
- logFC PTK2 ([1]; PTK2 Q05397, experiment wp114): −1.684
- logFC ([1]; PTK2 Q05397, experiment wp172): −2.689
- logFC PTK2 ([1]; PTK2 Q05397, experiment wp172): −2.689

SMILES: Cc1ccc(NC(=O)c2cccc(C(F)(F)F)c2)cc1N1Cc2cnc(Nc3ccc(N4CCN(CCCOc5cccc6c5C(=O)N(C5CCC(=O)NC5=O)C6=O)CC4)nc3)nc2N(C)C1=O (centres unmarked) [DB0662]
- logFC MAP3K20 [2, 6]: −0.737

SMILES: CC(C)(C)c1nc(-c2cccc(NS(=O)(=O)c3c(F)cccc3F)c2F)c(-c2ccnc(NCCOCCNC(=O)CCOCCOCCNc3cccc4c3CN(C3CCC(=O)NC3=O)C4=O)n2)s1 (centres unmarked) [DD.03.107]
- logFC ([3]; experiment wp147, 1 uM): −0.3823
- logFC ([3]; experiment wp147, 2 uM): −0.4234
- logFC ([3]; experiment wp147, 4 uM): −0.4699
- logFC ([4]; experiment wp147, 4 uM): −0.3418
